Source: the NIST ThermoML archive (doi:10.1021/je034290l)

Legend:
[1] = Liquid; for mass density: 101.33 kPa
[2] = refractive index (Na D-line) (dimensionless); conditions: 101.33 kPa, Liquid, Standard Abbe refractometry

COC=O [methyl methanoate]
Conditions | mass density [kg/m3] | refractive index | vapor or sublimation pressure [kPa]
[1], 299.15 K | 964.78 | – | –
[1], 301.23 K | – | – | 88.7
[1], 301.42 K | – | – | 89.37
[1], 301.78 K | – | – | 90.67
[1], 302.15 K | – | – | 91.98
[1], 302.53 K | – | – | 93.31
[1], 302.89 K | – | – | 94.64
[1], 303.41 K | – | – | 95.98
[1], 303.77 K | – | – | 97.36
[1], 304.13 K | – | – | 98.69
[1], 304.44 K | – | – | 99.97
[1], 304.79 K | – | – | 101.32
[1], 304.83 K | – | – | 101.39
[1], 305.21 K | – | – | 102.89
[1], 305.51 K | – | – | 104.06
[1], 305.85 K | – | – | 105.38
[1], 306.2 K | – | – | 106.72
[1], 306.54 K | – | – | 108.06
[1], 306.84 K | – | – | 109.39
[1], 307.2 K | – | – | 110.77
[1], 307.54 K | – | – | 112.13
[1], 307.85 K | – | – | 113.44
[1], 308.13 K | – | – | 114.75
[1], 308.47 K | – | – | 116.1
[1], 308.81 K | – | – | 117.47
[1], 309.15 K | – | – | 118.77
[1], 309.43 K | – | – | 120.12
[1], 309.72 K | – | – | 121.43
[1], 310.03 K | – | – | 122.74
[1], 310.33 K | – | – | 124.08
[1], 310.64 K | – | – | 125.47
[1], 310.92 K | – | – | 126.77
[1], 311.19 K | – | – | 128.14
[1], 311.48 K | – | – | 129.44
[1], 311.78 K | – | – | 130.75
[1], 312.06 K | – | – | 132.09
[1], 312.37 K | – | – | 133.48
[1], 312.67 K | – | – | 134.81
[1], 312.9 K | – | – | 136.09
[1], 313.17 K | – | – | 137.42
[1], 313.45 K | – | – | 138.75
[1], 313.74 K | – | – | 139.83
[1], 314.01 K | – | – | 141.42
[1], 314.3 K | – | – | 142.78
[1], 314.37 K | – | – | 143.32
[1], 314.6 K | – | – | 144.13
[1], 314.63 K | – | – | 144.65
[1], 314.88 K | – | – | 145.45
[1], 314.93 K | – | – | 145.65
[1], 315.12 K | – | – | 146.74
[1], 315.18 K | – | – | 147.03
[1], 315.52 K | – | – | 148.79
[1], 315.56 K | – | – | 149.41
[1], 315.77 K | – | – | 150.23
[1], 316 K | – | – | 151.48
[1], 316.06 K | – | – | 152.08
[1], 316.23 K | – | – | 152.97
[1], 316.47 K | – | – | 154.04
[1], 316.57 K | – | – | 154.75
[1], 316.71 K | – | – | 155.22
[1], 316.95 K | – | – | 156.54
[1], 317.05 K | – | – | 157.42
[1], 317.17 K | – | – | 157.73
[1], 317.36 K | – | – | 158.92
[1], 317.4 K | – | – | 159.14
[1], 317.64 K | – | – | 160.45
[1], 317.88 K | – | – | 161.72
[1], 318 K | – | – | 162.65
[1], 318.34 K | – | – | 164.18
[1], 318.51 K | – | – | 165.32
[1], 318.68 K | – | – | 166.44
[1], 319.07 K | – | – | 168.3
[1], 319.37 K | – | – | 170
[1], 319.45 K | – | – | 170.76
[1], 319.67 K | – | – | 171.98
[1], 319.93 K | – | – | 173.32
[1], 320.22 K | – | – | 174.76
[1], 320.34 K | – | – | 175.82
[1], 320.65 K | – | – | 177.38
[1], 320.78 K | – | – | 178.57
[1], 321.04 K | – | – | 180.01
[1], 321.34 K | – | – | 181.7
[1], 321.46 K | – | – | 182.37
[1], 321.72 K | – | – | 184.02
[1], 321.94 K | – | – | 185.46
[1], 322.2 K | – | – | 186.83
[2], 299.15 K | – | 1.3402 | –

CCCC(=O)OC [methyl butanoate]
Conditions | mass density [kg/m3] | refractive index | vapor or sublimation pressure [kPa]
[1], 318.15 K | 870.24 | – | –
[1], 347.53 K | – | – | 40.12
[1], 348.26 K | – | – | 41.24
[1], 349.21 K | – | – | 42.76
[1], 349.79 K | – | – | 43.84
[1], 350.81 K | – | – | 45.25
[1], 351.98 K | – | – | 46.74
[1], 352.34 K | – | – | 47.92
[1], 353.21 K | – | – | 49.41
[1], 353.72 K | – | – | 50.85
[1], 354.96 K | – | – | 51.83
[1], 355.26 K | – | – | 53.5
[1], 356.06 K | – | – | 54.82
[1], 356.79 K | – | – | 55.89
[1], 357.44 K | – | – | 57.38
[1], 358.24 K | – | – | 58.61
[1], 358.9 K | – | – | 60.02
[1], 359.7 K | – | – | 61.42
[1], 360.43 K | – | – | 62.63
[1], 360.93 K | – | – | 64.13
[1], 362.03 K | – | – | 66.54
[1], 362.31 K | – | – | 68.03
[1], 363.2 K | – | – | 69.42
[1], 363.49 K | – | – | 70.61
[1], 363.78 K | – | – | 71.18
[1], 365.02 K | – | – | 73.5
[1], 365.38 K | – | – | 74.77
[1], 365.97 K | – | – | 75.89
[1], 366.41 K | – | – | 77.39
[1], 366.84 K | – | – | 78.61
[1], 367.57 K | – | – | 80.14
[1], 368.01 K | – | – | 81.39
[1], 368.59 K | – | – | 82.57
[1], 369.25 K | – | – | 83.91
[1], 369.95 K | – | – | 85.71
[1], 370.19 K | – | – | 86.58
[1], 370.49 K | – | – | 87.94
[1], 371.07 K | – | – | 88.35
[1], 371.72 K | – | – | 90.8
[1], 371.79 K | – | – | 92.1
[1], 372.31 K | – | – | 93.26
[1], 372.89 K | – | – | 94.59
[1], 373.47 K | – | – | 95.92
[1], 373.84 K | – | – | 97.46
[1], 374.57 K | – | – | 99.14
[1], 374.77 K | – | – | 100.04
[1], 375.24 K | – | – | 101.32
[1], 375.37 K | – | – | 102.58
[1], 375.81 K | – | – | 104.06
[1], 376.02 K | – | – | 105.47
[1], 376.39 K | – | – | 106.5
[1], 376.97 K | – | – | 107.92
[1], 377.55 K | – | – | 109.23
[1], 378.14 K | – | – | 110.58
[1], 378.36 K | – | – | 112.15
[1], 378.79 K | – | – | 113.36
[1], 378.94 K | – | – | 114.67
[1], 379.3 K | – | – | 115.84
[1], 379.67 K | – | – | 117.27
[1], 380.03 K | – | – | 118.72
[1], 380.69 K | – | – | 120.15
[1], 381.2 K | – | – | 121.36
[1], 381.56 K | – | – | 122.59
[1], 381.64 K | – | – | 124.01
[1], 381.85 K | – | – | 125.24
[1], 382.22 K | – | – | 126.48
[1], 382.73 K | – | – | 127.91
[1], 382.95 K | – | – | 129.4
[1], 383.6 K | – | – | 130.75
[1], 383.68 K | – | – | 132.15
[1], 384.33 K | – | – | 133.49
[1], 384.77 K | – | – | 134.91
[1], 384.84 K | – | – | 135.92
[1], 385.06 K | – | – | 137.27
[1], 385.35 K | – | – | 138.45
[1], 385.72 K | – | – | 140.01
[1], 386.06 K | – | – | 141.27
[1], 386.74 K | – | – | 142.63
[1], 386.84 K | – | – | 144.13
[1], 387.1 K | – | – | 145.37
[1], 387.47 K | – | – | 146.49
[1], 387.61 K | – | – | 147.69
[1], 387.98 K | – | – | 149.24
[1], 388.41 K | – | – | 150.57
[1], 388.92 K | – | – | 151.94
[1], 389.02 K | – | – | 153.4
[1], 389.36 K | – | – | 154.57
[1], 390.02 K | – | – | 156.49
[1], 390.16 K | – | – | 157.37
[1], 390.36 K | – | – | 158.7
[1], 390.53 K | – | – | 160.05
[1], 390.89 K | – | – | 161.18
[1], 391.07 K | – | – | 162.57
[1], 391.55 K | – | – | 163.94
[1], 391.98 K | – | – | 165.7
[1], 392.2 K | – | – | 166.69
[2], 318.15 K | – | 1.3753 | –
